Experiments:
[1] = target: Beta-1 adrenergic receptor (Cavia porcellus) (UniProt B0FL73); assay: Intrinsic activity at beta-1 adrenergic receptor in guinea pig right atria assessed as increase in contraction rate of spontaneously beating right atria relative to isoproterenol
[2] = target: Beta-2 adrenergic receptor (Cavia porcellus) (UniProt Q8K4Z4); conditions: Trachea
Description: Agonist activity at beta-2 adrenergic receptor in guinea pig tracheal chain assessed as relaxation of spontaneously contracted tracheal smooth muscle

Cavia porcellus = organism: Cavia porcellus; assay: Selectivity ratio of ED25 for beta-1 adrenergic receptor in guinea pig right atria to ED50 for beta-2 adrenergic receptor in guinea pig tracheal chain
[3] = target: Beta-1 adrenergic receptor (Cavia porcellus) (UniProt B0FL73)
[4] = target: Beta-1 adrenergic receptor (Cavia porcellus) (UniProt B0FL73); assay: Agonist activity at beta-1 adrenergic receptor in guinea pig right atria assessed as increase in contraction rate of spontaneously beating right atria at 6.3 X 10^-5 M relative to control
[5] = target: Beta-1 adrenergic receptor (Cavia porcellus) (UniProt B0FL73); assay: Agonist activity at beta-1 adrenergic receptor in guinea pig right atria assessed as increase in contraction rate of spontaneously beating right atria at 1.1 X 10^-5 M relative to control

Beta-2 adrenergic receptor (Cavia porcellus), sequence (Q8K4Z4 whole entry, looked up): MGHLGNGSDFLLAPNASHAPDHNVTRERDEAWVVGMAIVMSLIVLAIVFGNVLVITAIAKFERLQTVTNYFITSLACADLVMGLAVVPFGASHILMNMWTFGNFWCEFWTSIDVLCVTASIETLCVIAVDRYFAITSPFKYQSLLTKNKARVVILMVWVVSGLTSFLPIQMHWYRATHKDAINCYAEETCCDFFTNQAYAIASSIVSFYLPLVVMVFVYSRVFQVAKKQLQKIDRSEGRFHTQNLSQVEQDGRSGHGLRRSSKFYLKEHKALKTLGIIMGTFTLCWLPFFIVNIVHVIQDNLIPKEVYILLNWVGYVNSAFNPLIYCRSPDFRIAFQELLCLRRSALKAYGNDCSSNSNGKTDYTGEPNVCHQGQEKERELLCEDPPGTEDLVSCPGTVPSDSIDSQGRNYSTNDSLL
Beta-1 adrenergic receptor (Cavia porcellus), sequence (B0FL73 1-467): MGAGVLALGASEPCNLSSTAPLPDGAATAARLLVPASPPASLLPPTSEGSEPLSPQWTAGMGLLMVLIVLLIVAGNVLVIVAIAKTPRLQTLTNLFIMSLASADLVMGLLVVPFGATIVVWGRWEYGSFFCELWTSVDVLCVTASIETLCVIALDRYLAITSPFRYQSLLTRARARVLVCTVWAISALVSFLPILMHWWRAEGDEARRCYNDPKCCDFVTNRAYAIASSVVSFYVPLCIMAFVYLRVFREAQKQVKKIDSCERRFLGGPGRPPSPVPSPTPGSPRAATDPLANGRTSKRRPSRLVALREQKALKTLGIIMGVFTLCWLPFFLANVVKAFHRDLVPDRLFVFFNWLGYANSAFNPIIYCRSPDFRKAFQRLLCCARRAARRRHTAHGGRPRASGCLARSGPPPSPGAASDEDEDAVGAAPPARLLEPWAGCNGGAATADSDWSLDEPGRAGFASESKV

SMILES | Intrinsic activity [1] | ED50 [2] | Selectivity ratio (Cavia porcellus) | ED25 [3] | Activity [4] [%] | Activity [5] [%]
CC(C)NCC(O)c1ccc(O)c(NS(C)(=O)=O)c1 (stereo not drawn) | 0.7 | 2.6 ×10⁻⁸ M | 3 | 7.6 ×10⁻⁸ M | – | –
CC(C)(C)NCC(CO)c1ccc(O)c(N)c1 (stereo not drawn) | 0.7 | 9.6 ×10⁻⁷ M | 1.4 | 1300 nM | – | –
CC(C)(C)NCC(CO)c1ccc(O)c(O)c1 (stereo not drawn) | 1 | 3.3 ×10⁻⁸ M | 2.9 | 9.6 ×10⁻⁸ M | – | –
CC(C)NCC(C)(O)c1ccc(O)c(O)c1 (stereo not drawn) | – | 3400 nM | – | – | 18 | –
CC(C)(C)NCC(CO)c1ccc(O)c(NC(N)=O)c1 (stereo not drawn) | 0.3 | 5.2 ×10⁻⁷ M | 18 | 9300 nM | – | –
CC(C)(C)NCC(CO)c1ccc(O)cc1 (stereo not drawn) | 0.3 | 4100 nM | 24 | 9.8 ×10⁻⁵ M | – | –
COC(CNC(C)C)c1ccc(O)c(O)c1 (stereo not drawn) | – | 1600 nM | – | 3 ×10⁻⁷ M | – | –
CC(C)(C)NCC(CO)c1ccc(O)c(NS(C)(=O)=O)c1 (stereo not drawn) | – | 6 ×10⁻⁷ M | – | – | – | 18
CC(C)(C)NCC(CO)c1ccc(O)c(CO)c1 (stereo not drawn) | 0.25 | 4600 nM | 10 | 4.7 ×10⁻⁵ M | – | –
CC(C)(C)NCC(O)c1ccc(O)c(NC(N)=O)c1 (stereo not drawn) | 0.5 | 1.9 ×10⁻⁸ M | 34 | 6.4 ×10⁻⁷ M | – | –
CC(C)NCC(O)c1ccc(O)cc1 (stereo not drawn) | 0.3 | 1.1 ×10⁻⁷ M | 0.7 | 7.7 ×10⁻⁸ M | – | –
CC(C)(C)NCC(O)c1ccc(O)c(N)c1 (stereo not drawn) | – | – | 5.2 | – | – | –
CC(C)NCC(O)c1ccc(O)c(O)c1 (stereo not drawn) | – | 7.1 nM | – | – | – | –
CC(C)(C)NCC(O)c1ccc(O)c(CO)c1 (stereo not drawn) | 0.7 | 1.1 ×10⁻⁸ M | 28 | 3.1 ×10⁻⁷ M | – | –
CC(C)(C)NCC(O)c1ccc(O)c(O)c1 (stereo not drawn) | 1 | 1.3 nM | 5.5 | 7.1 nM | – | –

From ChEMBL document CHEMBL3272119, “Adrenergic agents. 8.1 Synthesis and beta-adrenergic agonist activity of some 3-tert-butylamino-2-(substituted phenyl)-1-propanols” (J Med Chem, 1977)
